Test results reported in US7482479B2, “Production of cis-pellitorin and use as a flavouring” (Symrise GmbH & Co., KG, priority 2002, dated 2009).

Assays:
mouse = conditions: cited from earlier work
[1] = frequent use and overdosing; cited from earlier work
[2] = Tasting of the substance in 11% sugar solution by a group of testers (sensory profile); assay type: in vivo; conditions: for sensory profile (tasting): approx. 5 ml swallowed, 6 to 8 testers; for flavour impression in sensory testing: concentration not given
Description: The substance to be tasted is dissolved in ethanol and the ethanolic solution then diluted with an 11% sugar solution (final concentration: c). Approx. 5 ml of the sugar solution at a time are swallowed for the tasting. If the threshold value of the substance is known, a value just above the threshold value is chosen for the tasting. A group of 6 to 8 testers tasted the solutions.

[3] = capsaicin as reference; cited from earlier work

| SMILES | sensory profile (tasting) ([2]; c=10 ppm in 11% sugar solution) | flavour impression in sensory testing [2] | other results |
| --- | --- | --- | --- |
| COc1cc(CNC(=O)CCCC/C=C/C(C)C)ccc1O [capsaicin, N-(4-hydroxy-3-methoxybenzyl)-8-methyl-(6E)-nonenoic acid amide] |  |  | LD50 (mouse oral) (mouse): 47 mg; chronic toxicity [1]: chronic gastritis, kidney and liver damage |
| CCCCC/C=C\C=C\C(=O)NCC(C)C [cis-pellitorine, 2E,4Z-decadienoic acid-N-isobutylamide] | pronounced feeling of warmth, immediately pungent, typical alcohol pungency | pleasant, extremely pungent and warm flavour impression, which is reminiscent of ethanol and is relatively long lasting |  |
| COc1cc(CNC(=O)CCCCCCC(C)C)ccc1O [dihydrocapsaicin] |  |  | sensory profile (tasting) ([2]; c=100 ppb in 11% sugar solution): slightly delayed onset of effect in the pharynx, burning, aggressive, no heat development |
| O=C(/C=C/C=C/c1ccc2c(c1)OCO2)N1CCCCC1 [piperine, 1-piperoyl piperidine] |  |  | relative pungency in comparison to capsaicin [3]: approx. 1% |
| CCCCC/C=C/C=C/C(=O)NCC(C)C [trans-pellitorine, 2E,4E-decadienoic acid-N-isobutylamide] | saliva-stimulating, oily, fruity, slightly tingling, not pungent | primarily numbing |  |
